Laboratory results: ChEMBL document CHEMBL1201862, “PubChem BioAssay data set” (2004)
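All cell lines were grown in 96-well plates and treated with compound for 48 hours. At the GI50, growth is halved.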 Activity calls are given as the source filed them. No stated cut-off is given here; in the data, active = GI50 up to about 1.1 µM and inactive = higher.

Assays:
Test in all cases: DTP human tumour cell line panel, 48 h
[1] = test system: OVCAR-3
[2] = test system: DMS-114
[3] = test system: 786-0
[4] = test system: NCI-H226
[5] = test system: RPMI-8226
[6] = test system: LOX IMVI
[7] = test system: TK-10
[8] = test system: Malme-3M
[9] = test system: NCI-H522
[10] = test system: EKVX
[11] = test system: SF-295
[12] = test system: HCT-15
[13] = test system: HCC 2998
[14] = test system: SK-MEL-2
[15] = test system: K562
[16] = test system: UACC-257
[17] = test system: HOP-92
[18] = test system: HT-29
[19] = test system: MCF7
[20] = test system: MDA-N

Row | SMILES | GI50 [1] | GI50 [2] | GI50 [3] | GI50 [4] | GI50 [5] | GI50 [6] | GI50 [7] | GI50 [8] | GI50 [9] | GI50 [10] | GI50 [11] | GI50 [12] | GI50 [13] | GI50 [14] | GI50 [15] | GI50 [16] | GI50 [17] | GI50 [18] | GI50 [19] | GI50 [20]
1 | CCOC(OC1=C(C#N)CCCC1)C(CC)[Se]c1ccccc1[N+](=O)[O-] (stereo unspecified) | 26.5 µM (inactive) | 15.7 µM (inactive) | 17.8 µM (inactive) | 17.7 µM (inactive) | 19.5 µM (inactive) | 16 µM (inactive) | 76.2 µM (inactive) | 22.8 µM (inactive) | 16.3 µM (inactive) | 30.8 µM (inactive) | 22.2 µM (inactive) | 18.5 µM | 17.7 µM (inactive) | 21 µM (inactive) | 33.6 µM (inactive) | > 100 µM (inactive) | 18.4 µM (inactive) | 16.8 µM (inactive) |  | 
2 | CC(C)CCCCCCCCCCCCC(=O)NCC(=O)NC1C(C)OC(Nc2ncnc3c2ncn3C)C(O)C1O (stereo unspecified) | 3.52 µM (inactive) | 7.82 µM (inactive) |  | 2.16 µM (inactive) | 2.43 µM (inactive) | 5.3 µM (inactive) |  | 2.32 µM (inactive) | 6.7 µM (inactive) | > 100 µM (inactive) | 6.4 µM (inactive) | > 100 µM | 1.28 µM (inactive) | 8.34 µM (inactive) | > 73.3 µM (inactive) | 19.4 µM (inactive) | 2.41 µM (inactive) | 4.2 µM (inactive) | > 100 µM (inactive) | 
3 | CN1OC(=O)N(C)C1c1ccccc1 (stereo unspecified) | > 100 µM (inactive) | > 100 µM (inactive) |  | > 100 µM (inactive) | > 100 µM (inactive) | > 100 µM (inactive) |  | > 100 µM (inactive) | > 100 µM (inactive) | > 100 µM (inactive) | > 100 µM (inactive) | > 100 µM | > 100 µM (inactive) | > 100 µM (inactive) | > 100 µM (inactive) | > 100 µM (inactive) | > 100 µM (inactive) | > 100 µM (inactive) | > 100 µM (inactive) | 
4 | CCCCCCCCCCCC(=O)OC[C@H](C[As](=O)(O)O)OC(=O)CCCCCCCCCCC | 5.92 µM (inactive) | 1.95 µM (inactive) | 13.2 µM (inactive) | 14.8 µM (inactive) | 6.03 µM (inactive) | 8.79 µM (inactive) | 3.87 µM (inactive) | 2.3 µM (inactive) | 2.25 µM (inactive) | 10.2 µM (inactive) | 13.4 µM (inactive) | 8.26 µM | 8.13 µM (inactive) | 2.68 µM (inactive) | 4.89 µM (inactive) | 11 µM (inactive) | 1.75 µM (inactive) | 8.02 µM (inactive) | 8.75 µM (inactive) | 4.34 µM (inactive)
5 | Cc1cc(O)nc(NNC(C#N)c2cccc(O)c2)n1 (stereo unspecified) | > 100 µM (inactive) | > 100 µM (inactive) | > 100 µM (inactive) | > 100 µM (inactive) | > 100 µM (inactive) | > 100 µM (inactive) | > 100 µM (inactive) | 79.1 µM (inactive) | > 100 µM (inactive) |  | > 100 µM (inactive) | > 100 µM |  | > 100 µM (inactive) | > 100 µM (inactive) | > 100 µM (inactive) | > 100 µM (inactive) | > 100 µM (inactive) |  | 
6 | COc1ccc(C2Oc3cc(OC)c(O)cc3[C@@H]2C)cc1 (stereo partly specified) | 26.5 µM (inactive) | 18.7 µM (inactive) | 17.1 µM (inactive) | 17.2 µM (inactive) | 22.3 µM (inactive) | 14.3 µM (inactive) | 45.8 µM (inactive) | 78 µM (inactive) | 16.5 µM (inactive) | 56.4 µM (inactive) | > 100 µM (inactive) | 16.5 µM | 57.5 µM (inactive) | 43 µM (inactive) | 31.5 µM (inactive) | 44.6 µM (inactive) | 15.3 µM (inactive) | 40.7 µM (inactive) |  | 
7 | CCC1(c2ccc(N)cc2)CCC(=O)NC1=O (stereo unspecified) [AMINOGLUTETHIMIDE] | 1810 µM (inactive) | 1530 µM (inactive) | 3420 µM (inactive) | 1880 µM (inactive) | 2490 µM (inactive) | 2770 µM (inactive) | 2170 µM (inactive) | 2960 µM (inactive) | 2640 µM (inactive) | 3880 µM (inactive) | 1880 µM (inactive) | 2380 µM | 3680 µM (inactive) | 3510 µM (inactive) | 2080 µM (inactive) | 2650 µM (inactive) | 1030 µM (inactive) | 2960 µM (inactive) | 3010 µM (inactive) | 3250 µM (inactive)
